The results in this text go back to patent US20170362292A1, “S-Alkylated Hepcidin Peptides and Methods of Making and Using Thereof” (priority 2014, published 2017).

The structures appear in SMILES notation. Read-outs that look alike come from different tables or passages of the source.

In general, EC50 refers to the concentration at which the effect is half-maximal.

One data set concerns the target T1, human ferroportin-GFP (Homo sapiens, UniProt Q9NP59).
T1 sequence (Q9NP59 1-571): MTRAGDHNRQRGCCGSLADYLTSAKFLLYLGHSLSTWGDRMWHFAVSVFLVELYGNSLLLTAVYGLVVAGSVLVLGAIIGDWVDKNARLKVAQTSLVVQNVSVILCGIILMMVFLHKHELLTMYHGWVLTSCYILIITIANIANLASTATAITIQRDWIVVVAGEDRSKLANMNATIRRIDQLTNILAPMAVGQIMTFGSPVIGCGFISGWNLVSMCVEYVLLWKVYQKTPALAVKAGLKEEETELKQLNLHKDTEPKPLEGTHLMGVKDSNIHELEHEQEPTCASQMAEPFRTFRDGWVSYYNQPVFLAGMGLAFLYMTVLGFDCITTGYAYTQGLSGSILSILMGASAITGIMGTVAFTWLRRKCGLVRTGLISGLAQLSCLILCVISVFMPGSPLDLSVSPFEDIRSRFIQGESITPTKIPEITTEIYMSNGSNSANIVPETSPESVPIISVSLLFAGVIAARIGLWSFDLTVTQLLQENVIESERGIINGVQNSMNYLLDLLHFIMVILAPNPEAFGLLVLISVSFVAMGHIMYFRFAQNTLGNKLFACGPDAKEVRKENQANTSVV
Nature of the data set: cellular assay based on Fpn degradation (HEK293:TREX-Fpn-GFP cells, flow cytometry). Type of data set: cell-based. As for the experimental part: The S-alkylated hepcidin peptides were tested in vitro using a previously described cellular assay based on Fpn degradation. See e.g., Nemeth, et al. (2006) Blood 107: 328. Briefly, HEK293:TREX-Fpn-GFP, a cell line stably transfected with the human ferroportin-GFP construct under the control of doxycycline-inducible promoter, was plated on poly-D-lysine-coated plates in the presence of 20 μM FAC. Fpn expression was induced with 500 ng/mL doxycycline treatment for 24 hours. Then, doxycycline was washed off, and cells were treated with peptides for 24 hours. Cells were then trypsinized and resuspended at 1×10^6 cells/mL, and the intensity of green fluorescence was analyzed by flow cytometry using FAC Scan (fluorescence activated cell scanner) Analytic Flow Cytometer (Becton Dickinson, San Jose, Calif.) with CellQuest version 3.3 software. Cells not induced with doxycycline to express Fpn-GFP were used to establish a gate to exclude background fluorescence. Cells induced with doxycycline, but not treated with any peptides, were used as the positive control. Each peptide treatment was repeated independently 3 to 6 times. […] Hydrophobicity may also play a role, as activity increases in the carboxy-esters-substituent(s) order: —CH3<—C2H5<—C4H9 (PR73 SC<PR73 SB<PR73 SA).
In vitro activity may be measured by the dose-dependent loss of fluorescence of cells engineered to display ferroportin fused to green fluorescent protein as in Nemeth et al. (2006) Blood 107:328-33.

Data set [1] is described as follows: serum iron in C57BL/6 mice after intraperitoneal peptide injection. Conditions: 50-100 nmoles/mouse, vs PBS-injected mice. Type of data set: in vivo. As for the experimental part:
Based on in vitro results, PR73SH was selected as a suitable candidate for animal studies, which were carried out as previously described. See Preza, et al. (2011) J. Clin. Invest. 121:4880; Ramos, et al. (2012) Blood 120:3829; and Nemeth, et al. (2006) Blood 107:328. Animal studies were approved by the Animal Research Committee at UCLA. Briefly, C57BL/6 mice were obtained from The Jackson Laboratory (Bar Harbor, Me.) and were maintained on NIH 31 rodent diet (iron content 336 mg/kg; Harlan Teklad, Indianapolis, […]). Mice were injected intraperitoneally either with 100 μL PBS (control) or with 50 or 100 nmoles peptide in 100 μL PBS. Mice were killed 6, 24, and 48 hours later, blood was collected by cardiac puncture, and serum was separated using Microtainer tubes (Becton Dickinson, Franklin Lakes, N.J.). Serum iron was determined by using a colorimetric assay (Diagnostic Chemicals, Oxford, Conn.), which was modified for the microplate format so that 50 μL serum was used per measurement. See Nemeth, et al. (2004) J. Clin. Invest. 113(9): 1271-1276. The results were expressed as the percentage of decrease in serum iron when compared with the average value of serum iron levels in PBS-injected mice.
In vivo activity of PR73SH and PR73 was compared by assaying serum iron levels at 3 time points: (6, 24, and 48 hours) and concentrations that were previously shown to be sufficient for PR73 to exert potent bioactivity (50-100 nmoles/mouse).

Data set [2] in a line: storage stability in DMSO (LC/MS/MS). Type of data set: physicochemical. Conditions: 10 mM solution, room temperature, 30 days. The text has this:
Thus, the present invention also provides storage stable compositions comprising one or more S-alkylated hepcidin peptides.

The mark [3] stands for this setting: peptide treatment 24 hours, loss of GFP fluorescence relative to Hep25, read-out: EC50 [nM] TREX-hFpn-GFP cells.

For `CCCCCCCCCCCCCCCCNC(=O)CN(CC(N)=O)C(=O)CCCCCNC(=O)C[C@H](Cc1ccccc1)NC(=O)[C@H](CCCNC(=N)N)NC(=O)[C@H](CSC(=CC(N)=O)C(N)=O)NC(=O)[C@H](CCCNC(=N)N)NC(=O)C[C@@H]1CCCN1C(=O)[C@@H](NC(=O)[C@H](Cc1c[nH]cn1)NC(=O)[C@@H](NC(=O)CNCC(=O)O)[C@@H](C)O)C(c1ccccc1)c1ccccc1` [PR73SG], the DC50 on human ferroportin-GFP (setting [3]) was found to be 8.4 ± 2.5 nM.

Consider `CCCCCCCCCCCCCCCCNC(=O)CN(CC(N)=O)C(=O)CCCCCNC(=O)C[C@H](Cc1ccccc1)NC(=O)[C@H](CCCNC(=N)N)NC(=O)[C@H](CSC(=CS(=O)(=O)C(C)(C)C)S(=O)(=O)C(C)(C)C)NC(=O)[C@H](CCCNC(=N)N)NC(=O)C[C@@H]1CCCN1C(=O)[C@@H](NC(=O)[C@H](Cc1c[nH]cn1)NC(=O)[C@@H](NC(=O)CNCC(=O)O)[C@@H](C)O)C(c1ccccc1)c1ccccc1` [PR73SF], for which, at human ferroportin-GFP (setting [3]), the DC50 worked out at 10 ± 3.4 nM.

For the molecule `CCCCCCCCCCCCCCCCNC(=O)CN(CC(N)=O)C(=O)CCCCCNC(=O)C[C@H](Cc1ccccc1)NC(=O)[C@H](CCCNC(=N)N)NC(=O)[C@H](CSC(=CP(=O)(OCC)OCC)P(=O)(OCC)OCC)NC(=O)[C@H](CCCNC(=N)N)NC(=O)C[C@@H]1CCCN1C(=O)[C@@H](NC(=O)[C@H](Cc1c[nH]cn1)NC(=O)[C@@H](NC(=O)CNCC(=O)O)[C@@H](C)O)C(c1ccccc1)c1ccccc1` [PR73SH], the serum iron entry in data set [1] (6 hour time point) and in data set [1] (24 hour time point) was “decreased serum iron” each time. Further, the DC50 at human ferroportin-GFP (read-out: EC50 [nM] TREX-hFpn-GFP cells, peptide treatment 24 hours, loss of GFP fluorescence relative to Hep25) amounted to 1.1 ± 0.1 nM. For the same molecule, the stability in data set [2] turned out to be 99.5±0.5%.

As to `CCCCCCCCCCCCCCCCNC(=O)CN(CC(N)=O)C(=O)CCCCCNC(=O)C[C@H](Cc1ccccc1)NC(=O)[C@H](CCCNC(=N)N)NC(=O)[C@H](CSC(=CC(=O)OC)C(=O)OC)NC(=O)[C@H](CCCNC(=N)N)NC(=O)C[C@@H]1CCCN1C(=O)[C@@H](NC(=O)[C@H](Cc1c[nH]cn1)NC(=O)[C@@H](NC(=O)CNCC(=O)O)[C@@H](C)O)C(c1ccccc1)c1ccccc1` [PR73SC], the DC50 at human ferroportin-GFP (setting [3]) stood at 12.6 ± 1.8 nM.

Consider `CCCCCCCCCCCCCCCCNC(=O)CN(CC(N)=O)C(=O)CCCCCNC(=O)C[C@H](Cc1ccccc1)NC(=O)[C@H](CCCNC(=N)N)NC(=O)[C@H](CS)NC(=O)[C@H](CCCNC(=N)N)NC(=O)C[C@@H]1CCCN1C(=O)[C@@H](NC(=O)[C@H](Cc1c[nH]cn1)NC(=O)[C@@H](NC(=O)CNCC(=O)O)[C@@H](C)O)C(c1ccccc1)c1ccccc1` [PR73, reference compound], for which the serum iron entry in data set [1] (6 hour time point) and in data set [1] (24 hour time point) was “decreased serum iron” each time. The EC50 on human ferroportin-GFP (setting [3]) came out at 4.2 ± 0.3 nM.

As for `CCCCCCCCCCCCCCCCNC(=O)CN(CC(N)=O)C(=O)CCCCCNC(=O)C[C@H](Cc1ccccc1)NC(=O)[C@H](CCCNC(=N)N)NC(=O)[C@H](CSC(=CC(=O)OCC)C(=O)OCC)NC(=O)[C@H](CCCNC(=N)N)NC(=O)C[C@@H]1CCCN1C(=O)[C@@H](NC(=O)[C@H](Cc1c[nH]cn1)NC(=O)[C@@H](NC(=O)CNCC(=O)O)[C@@H](C)O)C(c1ccccc1)c1ccccc1` [PR73SB], at human ferroportin-GFP (setting [3]), the DC50 amounted to 10.4 ± 1.2 nM.

`CCCCCCCCCCCCCCCCNC(=O)CN(CC(N)=O)C(=O)CCCCCNC(=O)C[C@H](Cc1ccccc1)NC(=O)[C@H](CCCNC(=N)N)NC(=O)[C@H](CSC=CC(=O)O)NC(=O)[C@H](CCCNC(=N)N)NC(=O)C[C@@H]1CCCN1C(=O)[C@@H](NC(=O)[C@H](Cc1c[nH]cn1)NC(=O)[C@@H](NC(=O)CNCC(=O)O)[C@@H](C)O)C(c1ccccc1)c1ccccc1` [PR73SD]: on human ferroportin-GFP (setting [3]), the DC50 stood at 218 ± 13.4 nM.
